Assay results: paper PMC9332470, “Production and Selection of Antibody–Antigen Pairs for the Development of Immunoenzyme Assay and Lateral Flow Immunoassay Methods for Carbofuran and Its Analogues” (Biosensors, 2022)
≈ marks a conversion by molar mass, not a printed value.

Key:
mAb 13C8 [1] = test: indirect competitive ELISA (icELISA) with mAb 13C8; format: binding, BALB/c mice
Experimental: Microplates were coated with coating antigens. Different concentrations of the standard (50 µL) and the mAb (50 µL) were added to each well, and the plates were incubated for 20 min at 37 °C. The plates were washed with PBS (0.01 M, containing 0.05% (v/v) Triton X-100), 100 μL of goat anti-mouse IgG-HRP conjugate solution was added to each well, and the plates were incubated for 20 min at 37 °C. After the plates were washed with PBS (0.01 M, containing 0.05% Triton X-100, v/v), 100 µL of TMB single-component substrate solution was added to each well, followed by incubation at 37 °C for 10 min. Finally, the reaction was terminated, and the absorbance at 450 nm was measured by a microplate reader.
(§1) Taking the logarithm of the carbofuran concentration as the abscissa and (B/B0)% as the ordinate, the standard curves for ELISA and QD-LFIA were obtained based on the Morgan–Mercer–Flodin (MMF) model, which were fitted by CurveExpert 1.4.0 software (https://www.curveexpert.net, accessed on 15 July 2022). For the ELISA method, B and B0 are the absorbance of the sample well and blank well, respectively. For the QD-LFIA method, B and B0 are the T/C (fluorescence intensity of the test line/fluorescence intensity of the control line) of the sample and blank control, respectively.
(§2) The inhibition ratio (I%) was calculated as (B0-B)/B0 × 100%. IC50 is the concentration of the carbofuran at an I% of 50%, and the limit of detection (LOD) was determined as the concentration showing 10% of inhibition.
(§3) The cross-reactivities (CRs) of benfuracarb, carbosulfan, 3-hydroxy-carbofuran, metolcarb, carbaryl, isoprocarb and aldicarb with carbofuran were assessed by ELISA and QD-LFIA. CR was calculated as CR (%) = [IC50 (carbofuran)/IC50 (analogues)] × 100%.
The microplate was coated with the coating antigens DDB-BSA (1 µg/mL), DDB-OVA (0.5 µg/mL), MDA-BSA (0.2 µg/mL) and MDA-OVA (0.1 µg/mL), and the concentration of mAb 13C8 was 0.03 µg/mL. Carbofuran standards (0, 0.05, 0.15, 0.45, 1.35 and 4.05 ng/mL) were detected to obtain a standard curve, and the IC50 was calculated. […] In the icELISA used in this study, free antigen (carbofuran) in solution competed with the coating antigen on the microplate for antibody 13C8; therefore, the IC50 value was negatively correlated with the antibody-binding ability of free antigen competing with coating antigens.
The ELISA method was developed with the antibody 13C8–antigen MDA-BSA pair. Under the optimized coating antigen concentration (0.1 μg/mL), HRP-conjugated goat anti-mouse IgG concentration (1 μg/mL), antibody concentration (0.03 μg/mL) and working buffer parameters (5 mM PBS at pH 7.4), a standard curve was obtained with the concentration of carbofuran on the abscissa and the inhibition ratio (B/B0) on the ordinate.

mAb 13C8 [2] = test: quantum dot-based LFIA (QD-LFIA) with mAb 13C8; format: binding, BALB/c mice
Experimental: One milliliter of QDs was added to 9 mL of MES (0.054 M at pH 6.0) and centrifuged at 10,956× g for 20 min. Then, the precipitate was resuspended in 10 mL of MES (0.05 M at pH 6.0). After dispersion by ultrasonication for 2 min, EDC (20 mg) and NHS (20 mg) were added, and the reaction mixture was incubated for 30 min, followed by centrifugation at 10,956× g for 20 min. The precipitate was resuspended in 10 mL of MES (0.05 M at pH 6.0). Then, 1 mg of the mAb dissolved in 10 mL MES (0.027 M at pH 8.0) was added to the QD mixture and shaken at 25 °C and 180 rpm for 90 min. After the reaction, 5 mL of MES (0.054 M at pH 6.0 containing 1.6% BSA, w/v) was added, and the mixture was shaken at 25 °C and 180 rpm for 40 min, followed by centrifugation at 10,956× g for 20 min. The precipitate was resuspended in 10 mL of PB (0.01 M at pH 6.0, containing 5% casein, 1% glucose, 1.5% alanine and 0.05% NaN3, w/v) and dispersed by ultrasonication for 2 min.
The conjugate pad (6 mm × 300 mm) was pretreated with PBS (containing 0.5% Triton X-100, 0.5% alanine and 0.05% NaN3, w/v). Then, 1 mL of the mAb–QD conjugate was sprayed onto the pretreated conjugate pad at a flow rate of 10 μL/cm, and the pad was dried at 37 °C for 2 h. Other applied protocols were similar to those mentioned above.
as §1, §2, §3
Then, to prepare QD-LFIA test strips, DDB-BSA (40 μg/mL), DDB-OVA (50 μg/mL), MDA-BSA (35 μg/mL) and MDA-OVA (30 μg/mL) were dispensed onto the NC membrane, and antibody 13C8 was conjugated to the QDs. Carbofuran standards (0, 0.05, 0.15, 0.45, 1.35 and 4.05 ng/mL) were detected to obtain a standard curve, and the IC50 was calculated. […] In LFIA, carbofuran in solution competed with the coating antigen on the NC membrane for antibody 13C8 conjugated to the QDs.
A standard curve was developed with the inhibition ratio (B/B0) versus the logarithm of the concentration of carbofuran.

CNC(=O)Oc1cccc2c1OC(C)(C)C2 [carbofuran]
CR (%) (ELISA) (mAb 13C8 [1]; CR = IC50(carbofuran)/IC50(analogue) x 100%, optimized ELISA with mAb 13C8): 100.0%
IC50 (ELISA) (mAb 13C8 [1]; antibody 13C8, coating antigen DDB-BSA (1 µg/mL)): 0.19 ± 0.01 ng/mL (≈ 0.859 nM)
IC50 (ELISA) (mAb 13C8 [1]; antibody 13C8, coating antigen DDB-OVA (0.5 µg/mL)): 0.22 ± 0.02 ng/mL (≈ 0.994 nM)
IC50 (ELISA) (mAb 13C8 [1]; antibody 13C8, coating antigen MDA-BSA (0.2 µg/mL)): 0.20 ± 0.02 ng/mL (≈ 0.904 nM)
IC50 (ELISA) (mAb 13C8 [1]; antibody 13C8, coating antigen MDA-OVA (0.1 µg/mL)): 0.17 ± 0.01 ng/mL (≈ 0.768 nM)
detection limit (ELISA) (mAb 13C8 [1]; concentration showing 10% of inhibition, optimized ELISA): 0.02 ng/mL
working range (ELISA) (mAb 13C8 [1]; optimized ELISA): 0.02 to 2.09 ng/mL
IC50 (ELISA) (mAb 13C8 [1]; optimized ELISA, mAb 13C8 0.03 μg/mL, coating antigen 0.1 μg/mL, given as MDA-BSA and MDA-OVA, unit from text): 0.18 ± 0.03 ng/mL (≈ 0.814 nM)
CR (%) (QD-LFIA) (mAb 13C8 [2]; CR = IC50(carbofuran)/IC50(analogue) x 100%, QD-LFIA with mAb 13C8): 100.0%
IC50 (QD-LFIA) (mAb 13C8 [2]; antibody 13C8, antigen DDB-BSA (40 μg/mL) on NC membrane): >1000 ng/mL
IC50 (QD-LFIA) (mAb 13C8 [2]; antibody 13C8, antigen DDB-OVA (50 μg/mL) on NC membrane): >1000 ng/mL
IC50 (QD-LFIA) (mAb 13C8 [2]; antibody 13C8, antigen MDA-BSA (35 μg/mL) on NC membrane): 0.68 ± 0.03 ng/mL (≈ 3.07 nM)
IC50 (QD-LFIA) (mAb 13C8 [2]; antibody 13C8, antigen MDA-OVA (30 μg/mL) on NC membrane): 0.66 ± 0.03 ng/mL (≈ 2.98 nM)
detection limit (QD-LFIA) (mAb 13C8 [2]; concentration showing 10% of inhibition): 0.04 ng/mL
reaction of QD-LFIA test strips (mAb 13C8 [2]; homologous coating antigens DDB-BSA and DDB-OVA): almost no reaction
working range (QD-LFIA) (mAb 13C8 [2]; optimized QD-LFIA): 0.04 to 4.21 ng/mL
IC50 (QD-LFIA) (mAb 13C8 [2]; optimized QD-LFIA, mAb 13C8-QD, T line antigen 30 μg/mL, given as MDA-BSA and MDA-OVA): 0.67 ± 0.08 ng/mL (≈ 3.03 nM)
IC50 of QD-LFIA with heterologous coating antigens (mAb 13C8 [2]; span over MDA-BSA and MDA-OVA): 0.66–0.68 ng/mL
